This data set is described as follows: Controlled randomized single blind clinical trial in surgical open wounds. It counts as in vivo, human. As for the experimental part: The biocompatibility of the 0.046% HOCl concentration aqueous solution was tested in a three way controlled and randomized single blind clinical trial. Patients were randomized into three groups (60 patients per group). The antiseptic efficacy and biocompatibility of the test solution vs. povidone-iodine vs. chlorhexidine (Chlorhexidine Gluconate—CHG) in surgical—clean and clean contaminated—open wounds was evaluated in 180 patients admitted to the surgical facilities of Erasmo Meoz Hospital in Cucuta, Colombia.

Consider `[H]/N=C(\N/C(=N/[H])NCCCCCCNC(=N)NC(=N)Nc1ccc(Cl)cc1)Nc1ccc(Cl)cc1` [chlorhexidine, Chlorhexidine Gluconate], for which the infected patients entry (after five days follow-up, 60 patients per group) is reported as “two”. Also, the “wound appearance (biocompatibility)” value (human, in vivo) is “dried edges and no promising color in wound bed”.

Source of the values: patent publication US20190125790A1, “USE OF HYPOCHLOROUS ACID AS A TOPICAL ANTIMICROBIAL” (BIIOSMART TECHNOLOGIES LLC, priority 2016, published 2019).
